Tested on: Candida albicans
Assay: Growth of Candida albicans strains in medium with drug
Type: cell-based
Conditions: for doubling time: liquid growth in 1.2 μg/ml fluconazole; for drug resistance of cdr1/cdr1 cdr2/cdr2 double mutants versus parental isolate: clinical isolate Can90
Experimental: Candida albicans strain SC5314 was used for all experiments unless otherwise noted. The fluconazole-resistant C. albicans strain Can90 was kindly provided by the Massachusetts General Hospital. Yeast strains were grown in YPD (1% Bacto Yeast extract, 2% Bacto Peptone, 2% Dextrose) medium supplemented with 0.27 mM uridine, and selected using Nourseothricin (Nat) at a concentration of 200 μg/ml. Transformations were performed using the lithium acetate method (27). Flipout of Nat^R gene from Cas9-expressing Duet vector pV1025 was done by induction of flippase by growth in Difco yeast carbon base with bovine serum albumin, and screening for isolates that had lost the Nat^R gene. Filamentation experiments were performed with yeast grown overnight in liquid YPD, washed twice in RPMI-1640 medium (Cat #22400-105, Life Technologies) supplemented with 10% fetal bovine serum, and incubated in RPMI+10% FBS for the indicated time at a starting OD of 0.1. Growth curves were performed in a clear-bottomed 96-well plate, incubated with shaking at 30° C. in a Tecan Saphire^2 plate reader, reading optical density at 600 nm every 5 minutes for the indicated time. YPD-grown overnight yeast cultures were used to inoculate these wells to an initial OD of 0.05. CRISPR-mutagenized loci were verified by sequence analysis of PCR products amplified from the target locus and by restriction digest where applicable.

Structure (SMILES): OC(Cn1cncn1)(Cn1cncn1)c1ccc(F)cc1F [fluconazole]
- drug sensitivity of snf1-K81R strain (SC5314 snf1-K81R): hypersensitive
- doubling time (ade2 CDR1 CDR2 strain): 6 h
- doubling time (ade2 cdr1 cdr2 mutant): 12 h
- drug resistance of cdr1/cdr1 cdr2/cdr2 double mutants versus parental isolate: no longer displayed the hyper-resistance

Structure (SMILES): C[C@@H]1C[C@@H]([C@H](O)CC2CC(=O)NC(=O)C2)C(=O)[C@@H](C)C1 [cycloheximide]
- drug resistance of cdr1/cdr1 cdr2/cdr2 double mutants versus parental isolate: no longer displayed the hyper-resistance

Reference: patent US20170166928A1, “Compositions And Methods For Genetically Modifying Yeast” (priority 2015, published 2017)
